Experiments:
[1] = target: T1, human glucocorticoid receptor (GR) complex (Homo sapiens, UniProt P04150); assay: Glucocorticoid Receptor Competitive Binding Assay (fluorescence polarization, TAMRA-labeled dexamethasone probe); details: qualitative statement; competition with TAMRA-labeled dexamethasone
T1 construct: made in house; host or cells: insect expression system (baculovirus lysate)
T1 sequence (P04150 1-777): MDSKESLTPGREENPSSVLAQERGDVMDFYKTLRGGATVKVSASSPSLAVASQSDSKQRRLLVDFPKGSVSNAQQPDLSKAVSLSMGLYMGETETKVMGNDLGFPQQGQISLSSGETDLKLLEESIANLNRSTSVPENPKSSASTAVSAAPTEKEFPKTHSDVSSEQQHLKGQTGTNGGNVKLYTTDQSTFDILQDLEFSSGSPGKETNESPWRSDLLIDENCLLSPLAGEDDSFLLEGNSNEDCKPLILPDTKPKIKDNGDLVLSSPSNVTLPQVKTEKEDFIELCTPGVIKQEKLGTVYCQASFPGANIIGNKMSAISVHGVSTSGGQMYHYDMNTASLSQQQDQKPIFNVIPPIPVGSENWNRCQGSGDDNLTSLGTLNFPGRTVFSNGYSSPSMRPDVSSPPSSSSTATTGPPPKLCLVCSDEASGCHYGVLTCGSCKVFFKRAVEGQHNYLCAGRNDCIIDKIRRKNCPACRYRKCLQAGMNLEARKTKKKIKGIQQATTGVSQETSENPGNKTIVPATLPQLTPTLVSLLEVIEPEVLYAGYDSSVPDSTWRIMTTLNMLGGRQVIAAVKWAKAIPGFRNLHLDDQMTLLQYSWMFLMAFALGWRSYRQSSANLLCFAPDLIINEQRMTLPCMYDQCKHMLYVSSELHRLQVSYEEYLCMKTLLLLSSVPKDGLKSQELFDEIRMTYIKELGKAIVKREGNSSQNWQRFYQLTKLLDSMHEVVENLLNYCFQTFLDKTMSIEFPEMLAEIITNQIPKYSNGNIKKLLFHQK
How it was run: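 Competition with TAMRA-dexamethasone for a human GR complex expressed in insect cells, read by fluorescence polarization. Buffer was 10 mM TES, 50 mM KCl, 20 mM Na2MoO4, 1.5 mM EDTA, 0.04% CHAPS, 10% glycerol, 1 mM DTT, pH 7.4.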

[2] = tested on: glucocorticoid receptor; assay: Glucocorticoid Receptor Cell Assays (agonist activity in one or more of the above assays); format: cell-based; details: qualitative statement; assay not specified
Experimental: B. Glucocorticoid Receptor Cell Assays
1. Induction of Aromatase in Fibroblasts (Cell Assay for Transactivation)
Dexamethasone, a synthetic ligand to the glucocorticoid receptor (GR), induces expression of aromatase in human foreskin fibroblast cells. The activity of aromatase is measured by the conversion of testosterone to estradiol in culture media.
On the day of the experiment, the media in the wells is replaced with fresh media. Cells are treated with test compounds to final concentrations of 10^−5 M to 10^−8 M, and testosterone to a final concentration of 300 ng/mL. Each well has a total volume of 100 μL. Samples are made in duplicates. Control wells include: (a) wells that receive testosterone only, and (b) wells that receive testosterone plus 2 μM of dexamethasone to provide maximum induction of aromatase. Plates are incubated at 37° C. overnight (15 to 18 hours), and supernatants are harvested at the end of incubation. […] The amount of estradiol is inversely proportional to the ELISA signals in each well. The extent of aromatase induction by test compounds is expressed as a relative percentage to dexamethasone. EC50 values of test compounds are derived by non-linear curve fitting.
2. Inhibition of IL-6 Production in Fibroblasts (Cell Assay for Transrepression)
Human foreskin fibroblast cells produce IL-6 in response to stimulation by pro-inflammatory cytokine IL-1.
On the next day, media in the wells is replaced with fresh media. Cells are treated with IL-1 (rhIL-1α, R&D Systems Cat. No. 200-LA) to a final concentration of 1 ng/mL, and with test compounds to final concentrations of 10^−5 M to 10^−8 M, in a total volume of 200 μL per well. Samples are done in duplicates. […] Positive control wells receive IL-1 only and represent maximum (or 100%) amount of IL-6 production. Plates are incubated at 37° C. overnight (15 to 18 hours), and supernatants are harvested at the end of incubation. IL-6 levels in the supernatants are determined by the ELISA kits for IL-6 (MedSystems Diagnostics GmbH, Vienna, Austria, Cat. No. BMS213TEN) according to manufacture's instructions. The extent of inhibition of IL-6 by test compounds is expressed in percentage relative to positive controls. IC50 values of test compounds are derived by non-linear curve fitting.
Evaluation of agonist or antagonist activity of compounds binding to the glucocorticoid receptor may be determined by any of the assays.
3. Modulation of Tyrosine Aminotransferase (TAT) Induction in Rat Hepatoma Cells
Testing of compounds for agonist or antagonist activity in induction of tyrosine aminotransferase (TAT) in rat hepatoma cells.
H4-II-E-C3 cells were incubated overnight in 96 well plates (20,000 cells/100 μL/well) in MEM medium containing 10% heat inactivated FBS and 1% nonessential amino acids. On the next day, cells were stimulated with the indicated concentrations of dexamethasone or test compound (dissolved in DMSO, final DMSO concentration 0.2%) for 18 hours. Control cells were treated with 0.2% DMSO. After 18 hours, the cells were lysed in a buffer containing 0.1% Triton X-100 and the TAT activity was measured in a photometric assay using tyrosine and alpha-ketoglutarate as substrates.
For measuring antagonist activity, the hepatoma cells were pre-stimulated by addition of dexamethasone (concentration ranges from 3×10^−9 M to 3×10^−8 M) shortly before the test compound was applied to the cells.
4. Modulation of MMTV-Luc Induction in HeLa Cells
Testing of compounds for agonist or antagonist activity in stimulation of MMTV-(mouse mammary tumor virus) promoter in HeLa cells.
Cells were cultured overnight in DMEM medium without phenol red, supplemented with 3% CCS (charcoal treated calf serum) and then transferred to 96 well plates (15,000 cells/100 μL/well).

Row | activity in the GR binding assay [1] | SMILES | activity as agonists of the glucocorticoid receptor function in one or more of the above assays [2]
1 | potent activity | Cc1cccc2[nH]c(CC(O)(CC(C)(C)c3ccc(F)cc3)C(F)(F)F)cc12 (stereo not drawn) [1,1,1-Trifluoro-4-(4-fluorophenyl)-4-methyl-2-(4-methyl-1H-indol-2-ylmethyl)pentan-2-ol] | potent agonists
2 | potent activity | CC(C)(CC(O)(Cc1ccnc2ccccc12)C(F)(F)F)c1cc(F)cc2c1OCC2 (stereo not drawn) [1,1,1-Trifluoro-4-(5-fluoro-2,3-dihydrobenzofuran-7-yl)-4-methyl-2-quinolin-4-ylmethylpentan-2-ol] | potent agonists
3 | potent activity | COc1ccc(F)cc1C(C)(C)CC(O)(Cc1[nH]c2cnccc2c1C)C(F)(F)F (stereo not drawn) [1,1,1-Trifluoro-4-(5-fluoro-2-methoxyphenyl)-4-methyl-2-(3-methyl-1H-pyrrolo[2,3-c]pyridin-2-ylmethyl)pentan-2-ol] | potent agonists
4 | potent activity | COc1ccc(F)cc1C(C)(C)CC(O)(Cc1ccnc2ccccc12)C(F)(F)F (stereo not drawn) [1,1,1-Trifluoro-4-(5-fluoro-2-methoxyphenyl)-4-methyl-2-(quinolin-4-ylmethyl)pentan-2-ol] | potent agonists
5 | potent activity | Cc1ccc(F)cc1C(C)(C)CC(O)(Cc1cc2ccccc2[nH]1)C(F)(F)F (stereo not drawn) [1,1,1-Trifluoro-4-(5-fluoro-2-methylphenyl)-2-(1H-indol-2-ylmethyl)-4-methylpentan-2-ol] | potent agonists
6 | potent activity | CC(C)(CC(O)(Cc1ccnc2ccccc12)C(F)(F)F)c1cccc(C(F)(F)F)c1 (stereo not drawn) [1,1,1-Trifluoro-4-methyl-2-quinolin-4-ylmethyl-4-(3-trifluoromethylphenyl)pentan-2-ol] | potent agonists
7 | potent activity | Cc1cc2c(c(C(C)(C)CC(O)(Cc3ccnc4ccccc34)C(F)(F)F)c1)OCC2 (stereo not drawn) [1,1,1-Trifluoro-4-methyl-4-(5-methyl-2,3-dihydrobenzofuran-7-yl)-2-quinolin-4-ylmethylpentan-2-ol] | potent agonists
8 | potent activity | CC(C)(CC(O)(Cc1cc2cnccc2[nH]1)C(F)(F)F)c1ccccc1 (stereo not drawn) [1,1,1-Trifluoro-4-methyl-4-phenyl-2-(1H-pyrrolo[3,2-c]pyridin-2-ylmethyl)pentan-2-ol] | potent agonists

Continued, compound first:

Row | SMILES | activity in the GR binding assay [1] | activity as agonists of the glucocorticoid receptor function in one or more of the above assays [2]
9 | CC(C)(CC(O)(Cc1ccnc2cccc(F)c12)C(F)(F)F)c1ccc(F)cc1 (stereo not drawn) [1,1,1-Trifluoro-4-(4-fluorophenyl)-2-(5-fluoroquinolin-4-ylmethyl)-4-methylpentan-2-ol] | potent activity | potent agonists
10 | CC(C)(CC(O)(Cc1cc2ccccc2[nH]1)C(F)(F)F)c1cc(F)cc2c1OCC2 (stereo not drawn) [1,1,1-Trifluoro-4-(5-fluoro-2,3-dihydrobenzofuran-7-yl)-2-(1H-indol-2-ylmethyl)-4-methylpentan-2-ol] | potent activity | potent agonists
11 | COc1ccc(F)cc1C(C)(C)CC(O)(Cc1cc2ccccc2[nH]1)C(F)(F)F (stereo not drawn) [1,1,1-Trifluoro-4-(5-fluoro-2-methoxyphenyl)-2-(1H-indol-2-ylmethyl)-4-methylpentan-2-ol] | potent activity | potent agonists
12 | COc1ccc(F)cc1C(C)(C)CC(O)(Cc1ccnc2cc(F)ccc12)C(F)(F)F (stereo not drawn) [1,1,1-Trifluoro-4-(5-fluoro-2-methoxyphenyl)-2-(7-fluoroquinolin-4-ylmethyl)-4-methylpentan-2-ol] | potent activity | potent agonists
13 | COc1ccc(F)cc1C(C)(C)CC(O)(Cc1cc2ccncc2[nH]1)C(F)(F)F (stereo not drawn) [1,1,1-Trifluoro-4-(5-fluoro-2-methoxyphenyl)-4-methyl-2-(1H-pyrrolo[2,3-c]pyridin-2-ylmethyl)pentan-2-ol] | potent activity | potent agonists
14 | COc1ccc(F)cc1C(C)(C)CC(O)(Cc1cc2cnccc2[nH]1)C(F)(F)F (stereo not drawn) [1,1,1-Trifluoro-4-(5-fluoro-2-methoxyphenyl)-4-methyl-2-(1H-pyrrolo[3,2-c]pyridin-2-ylmethyl)pentan-2-ol] | potent activity | potent agonists
15 | Cc1ccc(F)cc1C(C)(C)CC(O)(Cc1cc2c(C)cccc2[nH]1)C(F)(F)F (stereo not drawn) [1,1,1-Trifluoro-4-(5-fluoro-2-methylphenyl)-4-methyl-2-(4-methyl-1H-indol-2-ylmethyl)pentan-2-ol] | potent activity | potent agonists
16 | CC(C)(CC(O)(Cc1cc2ccncc2[nH]1)C(F)(F)F)c1ccccc1 (stereo not drawn) [1,1,1-Trifluoro-4-methyl-4-phenyl-2-(1H-pyrrolo[2,3-c]pyridin-2-ylmethyl)pentan-2-ol] | potent activity | potent agonists
17 | CC(C)(CC(O)(Cc1ccnc2ccccc12)C(F)(F)F)c1ccccc1 (stereo not drawn) [1,1,1-Trifluoro-4-methyl-4-phenyl-2-quinolin-4-ylmethylpentan-2-ol] | potent activity | potent agonists
18 | COc1ccc(F)cc1C(C)(C)CC(O)(Cc1cc(Cl)nc(Cl)c1)C(F)(F)F (stereo not drawn) [2-(2,6-Dichloropyridin-4-ylmethyl)-1,1,1-trifluoro-4-(5-fluoro-2-methoxyphenyl)-4-methylpentan-2-ol] | potent activity | potent agonists
